Experimental data reported in PubChem BioAssay AID1963962 (Molecular Pharmacology Branch, DTP, NCI, 2024).
Each block holds one compound with its values, some of them ahead of it.

System: 967376-340-R-J2-PDC multicell spheroid viability
Experiment: Anticancer human tumor 967376-340-R-J2-PDC patient-derived colon adenocarcinoma cell line growth inhibition [PI3K]
Conditions: for IC50: curve of first compound; for viability, T/C: stronger effect = lower value
Source text: Combinatorial screen of targeted agents with the PI3K inhibitors inavolisib, alpelisib, duvelisib, and copanlisib in multi-cell type tumor spheroids
A high-throughput screen of multi-cell type tumor spheroids was designed to identify active combinations of targeted small molecules and PI3K pathway inhibitors. Complex spheroids include a stromal component modeled by human endothelial cells (HUVEC) and fibroblasts modeled by human mesenchymal stem cells (MSCs). The concentration ranges selected for each drug and investigational agent were based upon clinically achievable concentrations if the clinical Cmax of the agent was known.
Compounds. The drugs and investigational agents: inavolisib (NSC800729), alpelisib (NSC765974), duvelisib (NSC772469), copanlisib (NSC816437), ipatasertib (NSC767898), afuresertib (NSC778305), talazoparib (NSC767125), sapanisertib (NSC764658), selumetinib (NSC741078), tovorafenib (DAY101, NSC766906), vemurafenib (NSC761431), ravoxertinib (NSC781343), sotorasib (NSC818433), MRTX1133 (NSC 836407), abemaciclib (NSC 768073), palbociclib (NSC758247), venetoclax (NSC 766270), SY5609 (NSC837396), enzalutamide (NSC755605), and darolutamide (NSC825331), were obtained from the National Cancer Institute (NCI) Developmental Therapeutics Program Chemical Repository. The FDA-approved anticancer drug set is available from the NCI Developmental Therapeutics Program. […] The stock solutions were prepared in dimethyl sulfoxide (DMSO, Sigma-Aldrich, St. Louis, MO, cat. D2650) at 800-fold the tested concentration and stored at -70 degrees C prior to their use. All drugs and investigational agents were tested over a range starting from a high concentration at or near the clinical Cmax and decreasing in half-log increments. If the clinical Cmax for an agent had not been determined, the highest concentration tested was 10 microM.
Cell Culture. All cells were maintained in an incubator at 37 degrees C and 5% CO2 with 95% humidity. The PDC lines were cultured according to standard operating procedures established by the NCI PDMR (https://pdmr.cancer.gov/sops/default.htm). All PDCs were thawed and cultured in Matrigel-coated flasks prepared with a working solution of 1X Ham's F-12 nutrient mix, without supplementation (Invitrogen, Waltham, MA, cat. 11765054), 100 U/mL penicillin-streptomycin (Invitrogen, cat. 15140122), and 2.5% Matrigel (Corning Inc., Corning, NY, cat. 354248) for the first three passages. The 354836-022-R-J1-PDC, 475296-252-R-J1-PDC, and 997726-040-R-J2-PDC lines were cultured in 6A media, which includes advanced DMEM/F-12 (Thermo Fisher Scientific, cat. 12634028), 10 mM HEPES (Thermo Fisher Scientific, cat. 15630080), 1X GlutaMAX supplement (Thermo Fisher Scientific, cat. 35050061), 0.1 mg/mL primocin (InvivoGen, San Diego, CA, cat. ant-pm-2), 10% defined fetal bovine serum, heat inactivated (HyClone Laboratories Inc., Logan, UT, cat. SH30070.03HI), 50% L-WRN conditioned media (ATCC, cat. CRL-3276), 1.25 mM N-Acetyl-L-cysteine (Sigma-Aldrich, cat. A9165), 10 mM nicotinamide (Sigma-Aldrich, cat. N0636), 1X B-27 supplement (Thermo Fisher Scientific, cat. 17504044), 1X N-2 supplement (Thermo Fisher Scientific, cat. 17502048), and 10 microM Y-27632 dihydrochloride (Tocris Bioscience, Bristol, United Kingdom, cat. 1254). The 624824-186-R-J2-PDC line was cultured in 6C/Colon 1B media, which includes all 6A media components plus 50 ng/mL human EGF recombinant protein (Thermo Fisher Scientific, cat. PHG0311). […]

[1] = second compound 0.00316 µM, first compound 0.0316 µM
[2] = second compound 0.00316 µM, first compound 0.1 µM
[3] = second compound 0.01 µM, first compound 0.0316 µM
[4] = second compound 0.01 µM, first compound 0.1 µM
[5] = second compound 0.0316 µM, first compound 0.0316 µM
[6] = second compound 0.0316 µM, first compound 0.1 µM
[7] = second compound 0.1 µM, first compound 0.0316 µM
[8] = second compound 0.1 µM, first compound 0.1 µM
[9] = second compound 0.316 µM, first compound 0.0316 µM
[10] = second compound 0.316 µM, first compound 0.1 µM
[11] = second compound 1 µM, first compound 0.0316 µM
[12] = second compound 1 µM, first compound 0.1 µM
[13] = second compound 0.00316 µM, first compound 0.316 µM
[14] = second compound 0.00316 µM, first compound 1 µM
[15] = second compound 0.00316 µM, first compound 3.16 µM
[16] = second compound 0.00316 µM, first compound 10 µM
[17] = second compound 0.01 µM, first compound 0.316 µM
[18] = second compound 0.01 µM, first compound 1 µM
[19] = second compound 0.01 µM, first compound 3.16 µM
[20] = second compound 0.01 µM, first compound 10 µM
[21] = second compound 0.0316 µM, first compound 0.316 µM
[22] = second compound 0.0316 µM, first compound 1 µM
[23] = second compound 0.0316 µM, first compound 3.16 µM
[24] = second compound 0.0316 µM, first compound 10 µM
[25] = second compound 0.1 µM, first compound 0.316 µM
[26] = second compound 0.1 µM, first compound 1 µM
[27] = second compound 0.1 µM, first compound 3.16 µM
[28] = second compound 0.1 µM, first compound 10 µM
[29] = second compound 0.316 µM, first compound 0.316 µM
[30] = second compound 0.316 µM, first compound 1 µM
[31] = second compound 0.316 µM, first compound 3.16 µM
[32] = second compound 0.316 µM, first compound 10 µM
[33] = second compound 1 µM, first compound 0.316 µM
[34] = second compound 1 µM, first compound 1 µM
[35] = second compound 1 µM, first compound 3.16 µM
[36] = second compound 1 µM, first compound 10 µM
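Further: spheroids exposed to agents for 7 days before read-out.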
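Wherever viability, T/C is given: luminescence used as surrogate of cell viability.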

IC50 (second compound 0.00316 µM): > 0.1 µM
IC50 (second compound 0.01 µM): > 0.1 µM
IC50 (second compound 0.0316 µM): > 0.1 µM
IC50 (second compound 0.1 µM): > 0.1 µM
IC50 (second compound 0.316 µM): > 0.1 µM
IC50 (second compound 1 µM): > 0.1 µM
SMILES: CC(=O)c1c(C)c2cnc(Nc3ccc(N4CCNCC4)cn3)nc2n(C2CCCC2)c1=O + CC(Nc1ccc2c(c1)OCCn1cc(N3C(=O)OCC3C(F)F)nc1-2)C(N)=O
viability, T/C (second compound 0.00316 µM, first compound 0.000316 µM): 111%
viability, T/C (second compound 0.00316 µM, first compound 0.001 µM): 79.3%
viability, T/C (second compound 0.00316 µM, first compound 0.00316 µM): 93.8%
viability, T/C (second compound 0.00316 µM, first compound 0.01 µM): 102%
viability, T/C [1]: 114%
viability, T/C [2]: 87.4%
viability, T/C (second compound 0.01 µM, first compound 0.000316 µM): 100%
viability, T/C (second compound 0.01 µM, first compound 0.001 µM): 101%
viability, T/C (second compound 0.01 µM, first compound 0.00316 µM): 96.4%
viability, T/C (second compound 0.01 µM, first compound 0.01 µM): 93%
viability, T/C [3]: 94.7%
viability, T/C [4]: 75.8%
viability, T/C (second compound 0.0316 µM, first compound 0.000316 µM): 92.7%
viability, T/C (second compound 0.0316 µM, first compound 0.001 µM): 88.4%
viability, T/C (second compound 0.0316 µM, first compound 0.00316 µM): 70.7%
viability, T/C (second compound 0.0316 µM, first compound 0.01 µM): 117%
viability, T/C [5]: 91.3%
viability, T/C [6]: 84.7%
viability, T/C (second compound 0.1 µM, first compound 0.000316 µM): 87.9%
viability, T/C (second compound 0.1 µM, first compound 0.001 µM): 78.8%
viability, T/C (second compound 0.1 µM, first compound 0.00316 µM): 96.3%
viability, T/C (second compound 0.1 µM, first compound 0.01 µM): 64.3%
viability, T/C [7]: 90.2%
viability, T/C [8]: 79.7%
viability, T/C (second compound 0.316 µM, first compound 0.000316 µM): 64.3%
viability, T/C (second compound 0.316 µM, first compound 0.001 µM): 74.7%
viability, T/C (second compound 0.316 µM, first compound 0.00316 µM): 72.8%
viability, T/C (second compound 0.316 µM, first compound 0.01 µM): 72.1%
viability, T/C [9]: 72.9%
viability, T/C [10]: 67.8%
viability, T/C (second compound 1 µM, first compound 0.000316 µM): 65%
viability, T/C (second compound 1 µM, first compound 0.001 µM): 64.2%
viability, T/C (second compound 1 µM, first compound 0.00316 µM): 77.8%
viability, T/C (second compound 1 µM, first compound 0.01 µM): 55.7%
viability, T/C [11]: 61.6%
viability, T/C [12]: 50.9%

IC50 (second compound 0.00316 µM): > 10 µM
IC50 (second compound 0.01 µM): 9.81 µM
IC50 (second compound 0.0316 µM): > 10 µM
IC50 (second compound 0.1 µM): 8.12 µM
IC50 (second compound 0.316 µM): > 10 µM
IC50 (second compound 1 µM): 3.83 µM
SMILES: CCCS(=O)(=O)Nc1ccc(F)c(C(=O)c2c[nH]c3ncc(-c4ccc(Cl)cc4)cc23)c1F + CC(Nc1ccc2c(c1)OCCn1cc(N3C(=O)OCC3C(F)F)nc1-2)C(N)=O
viability, T/C [1]: 87.1%
viability, T/C [2]: 77.7%
viability, T/C [13]: 98.3%
viability, T/C [14]: 60.2%
viability, T/C [15]: 81.4%
viability, T/C [16]: 53.4%
viability, T/C [3]: 95.5%
viability, T/C [4]: 86.5%
viability, T/C [17]: 88.7%
viability, T/C [18]: 70.3%
viability, T/C [19]: 89.4%
viability, T/C [20]: 49.6%
viability, T/C [5]: 72%
viability, T/C [6]: 79.6%
viability, T/C [21]: 65.2%
viability, T/C [22]: 93.3%
viability, T/C [23]: 91.9%
viability, T/C [24]: 67.8%
viability, T/C [7]: 69.9%
viability, T/C [8]: 73.8%
viability, T/C [25]: 80.3%
viability, T/C [26]: 77.9%
viability, T/C [27]: 81.5%
viability, T/C [28]: 44.1%
viability, T/C [9]: 64.5%
viability, T/C [10]: 61.3%
viability, T/C [29]: 73.8%
viability, T/C [30]: 76.2%
viability, T/C [31]: 75.2%
viability, T/C [32]: 37.6%
viability, T/C [11]: 61.5%
viability, T/C [12]: 55.5%
viability, T/C [33]: 58.9%
viability, T/C [34]: 56%
viability, T/C [35]: 52.6%
viability, T/C [36]: 39.5%

IC50 (second compound 0.00316 µM): > 10 µM
IC50 (second compound 0.01 µM): > 10 µM
IC50 (second compound 0.0316 µM): > 10 µM
IC50 (second compound 0.1 µM): > 10 µM
IC50 (second compound 0.316 µM): > 10 µM
IC50 (second compound 1 µM): > 10 µM
SMILES: CNC(=O)c1ccc(N2C(=S)N(c3ccc(C#N)c(C(F)(F)F)c3)C(=O)C2(C)C)cc1F + CC(Nc1ccc2c(c1)OCCn1cc(N3C(=O)OCC3C(F)F)nc1-2)C(N)=O
viability, T/C [1]: 90.3%
viability, T/C [2]: 107%
viability, T/C [13]: 93.1%
viability, T/C [14]: 93.2%
viability, T/C [15]: 112%
viability, T/C [16]: 161%
viability, T/C [3]: 102%
viability, T/C [4]: 97.8%
viability, T/C [17]: 94.3%
viability, T/C [18]: 89.5%
viability, T/C [19]: 106%
viability, T/C [20]: 136%
viability, T/C [5]: 83.1%
viability, T/C [6]: 107%
viability, T/C [21]: 94.1%
viability, T/C [22]: 76.7%
viability, T/C [23]: 100%
viability, T/C [24]: 99.5%
viability, T/C [7]: 72.4%
viability, T/C [8]: 73.1%
viability, T/C [25]: 73.5%
viability, T/C [26]: 81.1%
viability, T/C [27]: 77.4%
viability, T/C [28]: 81%
viability, T/C [9]: 60.4%
viability, T/C [10]: 60.6%
viability, T/C [29]: 72.5%
viability, T/C [30]: 66.5%
viability, T/C [31]: 62.1%
viability, T/C [32]: 67.5%
viability, T/C [11]: 57.3%
viability, T/C [12]: 66%
viability, T/C [33]: 62.7%
viability, T/C [34]: 60.8%
viability, T/C [35]: 61.6%
viability, T/C [36]: 67.5%
